# Measured values published in patent US11395490B2, “Herbicidal composition” (SYNGENTA CROP PROTECTION, LLC, priority 2005, dated 2022).
# How the values were obtained:
# Assay type in all cases: in vivo
# Details in all cases: 21 days after treatment
# [1] = system: Euphorbia heterophylla (EPHHL); experiment: Post-emergence test, Euphorbia heterophylla
# From the text: (§1) The herbicidal action to be expected, We, for a given combination of two herbicides can be calculated as follows (see COLBY, S. R. “Calculating synergistic and antagonistic response of herbicide combinations”. Weeds 15, pages 20-22; 1967): We=X+[Y·(100−X)/100] wherein: X=% herbicidal action in the case of treatment with active ingredient (A) using an application rate of p kg per hectare, in comparison with untreated control (=0%). Y=% herbicidal action in the case of treatment with active ingredient (B) using an application rate of q kg per hectare, in comparison with untreated control. We=expected herbicidal action (% herbicidal action in comparison with untreated control) after treatment with active ingredient (A) and active ingredient (B) at a rate of application of p+q kg of active ingredient per hectare. If the action actually observed is greater than the expected value We, there is a synergistic effect. Trial Description, Pre-Emergence Test: Monocotyledonous and dicotyledonous test plants are sown in standard soil in plastics pots. The plants tested were: Maize (ZEAMX), Ipomea purpurea (PHBPU), Euphorbia heterophylla (EPHHL), Panicum millenacearum (PANMI). Immediately after sowing, the test compounds in aqueous suspension are applied by spraying (200 litres of water/ha). (A) was formulated as a SC50, and (B1), (B2) and (B3) were formulated as WP25; 1% adjuvant crop oil concentrate (Agridex) (v/v) was added to all treatments. The compounds were applied alone and in combination as tank mixtures. The rates of application depend on the optimum concentrations determined under field conditions and greenhouse conditions. The test plants are then cultivated in a greenhouse under optimum conditions. Evaluation of the tests is made after 21 days (% action, 100%=plants have died, 0%=no phytotoxic action).
# (§2) Trial Description Post-Emergence Test: The test plants are raised in plastics pots under greenhouse conditions as far as the 2- to 3-leaf stage. A standard soil is used as the cultivation substrate. The plants tested were: Maize (ZEAMX), Ipomea purpurea (PHBPU), Sorghum vulgare (SORVU), Euphorbia heterophylla (EPHHL), Panicum millenacearum (PANMI). At the 2- to 3-leaf stage, the herbicides are applied individually and as mixtures to the test plants. The test compounds are applied in the form of an aqueous suspension in 200 litres of water/ha. (A) was formulated as a SC50, and (B1), (B2) and (B3) were formulated as WP25; 1% adjuvant crop oil concentrate (Agridex) (v/v) was added to all treatments. The compounds were applied alone and in combination as tank mixtures. The rates of application depend on the optimum concentrations determined under field conditions and greenhouse conditions. Evaluation of the tests is made after 21 days (% action, 100%=plants have died, 0%=no phytotoxic action).
# [2] = system: Euphorbia heterophylla (EPHHL); experiment: Pre-emergence test, Euphorbia heterophylla
# From the text: as §1
# Ipomea purpurea (PHBPU) [3] = experiment: Post-emergence test, Ipomea purpurea
# From the text: as §1, §2
# Ipomea purpurea (PHBPU) [4] = experiment: Pre-emergence test, Ipomea purpurea
# From the text: as §1
# [5] = system: Panicum millenacearum (PANMI); experiment: Pre-emergence test, Panicum millenacearum
# From the text: as §1
# Maize (ZEAMX) [6] = experiment: Post-emergence test, Maize
# From the text: as §1, §2
# Maize (ZEAMX) [7] = experiment: Pre-emergence test, Maize
# From the text: as §1
# Sorghum vulgare (SORVU) = experiment: Post-emergence test, Sorghum vulgare
# From the text: as §1, §2
# [8] = system: Panicum millenacearum (PANMI); experiment: Post-emergence test, Panicum millenacearum
# From the text: as §1, §2
compound,measurement,setting,value
"Cn1nc(C(F)(F)F)c(CS(=O)(=O)C2=NOC(C)(C)C2)c1OC(F)F [(A), 3-[[[5-(difluoromethoxy)-1-methyl-3-(trifluoromethyl)-1H-pyrazol-4-yl]methyl]-sulfonyl]-4,5-dihydro-5,5-dimethyl-isoxazole]",Observed plant damage EPHHL,[1]; rate 12.5 g/ha,0%
same,Observed plant damage EPHHL,[1]; rate 25 g/ha,0%
same,Observed plant damage EPHHL,[1]; rate 50 g/ha,15%
same,Observed plant damage EPHHL,[1]; rate 100 g/ha,35%
same,Observed plant damage EPHHL,[1]; rate 200 g/ha,40%
same,Observed plant damage EPHHL,[2]; rate 12.5 g/ha,0%
same,Observed plant damage EPHHL,[2]; rate 25 g/ha,0%
same,Observed plant damage EPHHL,[2]; rate 50 g/ha,15%
same,Observed plant damage EPHHL,[2]; rate 100 g/ha,40%
same,Observed plant damage EPHHL,[2]; rate 200 g/ha,75%
same,Observed plant damage PHBPU,Ipomea purpurea (PHBPU) [3]; rate 12.5 g/ha,0%
same,Observed plant damage PHBPU,Ipomea purpurea (PHBPU) [3]; rate 25 g/ha,20%
same,Observed plant damage PHBPU,Ipomea purpurea (PHBPU) [3]; rate 50 g/ha,20%
same,Observed plant damage PHBPU,Ipomea purpurea (PHBPU) [3]; rate 100 g/ha,75%
same,Observed plant damage PHBPU,Ipomea purpurea (PHBPU) [3]; rate 200 g/ha,85%
same,Observed plant damage PHBPU,Ipomea purpurea (PHBPU) [4]; rate 12.5 g/ha,0%
same,Observed plant damage PHBPU,Ipomea purpurea (PHBPU) [4]; rate 25 g/ha,0%
same,Observed plant damage PHBPU,Ipomea purpurea (PHBPU) [4]; rate 50 g/ha,0%
same,Observed plant damage PHBPU,Ipomea purpurea (PHBPU) [4]; rate 100 g/ha,75%
same,Observed plant damage PHBPU,Ipomea purpurea (PHBPU) [4]; rate 200 g/ha,95%
same,Observed plant damage PANMI,[5]; rate 12.5 g/ha,0%
same,Observed plant damage PANMI,[5]; rate 25 g/ha,0%
same,Observed plant damage PANMI,[5]; rate 50 g/ha,70%
same,Observed plant damage PANMI,[5]; rate 100 g/ha,100%
same,Observed plant damage PANMI,[5]; rate 200 g/ha,100%
same,Observed plant damage ZEAMX,Maize (ZEAMX) [6]; rate 12.5 g/ha,0%
same,Observed plant damage ZEAMX,Maize (ZEAMX) [6]; rate 25 g/ha,0%
same,Observed plant damage ZEAMX,Maize (ZEAMX) [6]; rate 50 g/ha,0%
same,Observed plant damage ZEAMX,Maize (ZEAMX) [6]; rate 100 g/ha,0%
same,Observed plant damage ZEAMX,Maize (ZEAMX) [6]; rate 200 g/ha,0%
same,Observed plant damage ZEAMX,Maize (ZEAMX) [7]; rate 12.5 g/ha,0%
same,Observed plant damage ZEAMX,Maize (ZEAMX) [7]; rate 25 g/ha,0%
same,Observed plant damage ZEAMX,Maize (ZEAMX) [7]; rate 50 g/ha,0%
same,Observed plant damage ZEAMX,Maize (ZEAMX) [7]; rate 100 g/ha,0%
same,Observed plant damage ZEAMX,Maize (ZEAMX) [7]; rate 200 g/ha,0%
same,Observed plant damage SORVU,Sorghum vulgare (SORVU); rate 12.5 g/ha,0%
same,Observed plant damage SORVU,Sorghum vulgare (SORVU); rate 25 g/ha,0%
same,Observed plant damage SORVU,Sorghum vulgare (SORVU); rate 50 g/ha,0%
same,Observed plant damage SORVU,Sorghum vulgare (SORVU); rate 100 g/ha,0%
same,Observed plant damage SORVU,Sorghum vulgare (SORVU); rate 200 g/ha,0%
same,Observed plant damage PANMI,[8]; rate 12.5 g/ha,0%
same,Observed plant damage PANMI,[8]; rate 25 g/ha,35%
same,Observed plant damage PANMI,[8]; rate 50 g/ha,65%
same,Observed plant damage PANMI,[8]; rate 100 g/ha,65%
same,Observed plant damage PANMI,[8]; rate 200 g/ha,75%
